Test results reported in patent EP0643964A2 (priority 1993, dated 1995).
Values joined by “and” are separate entries in the source; they are usually repeats but may differ in a detail not shown here. Identical values can stand only once. Like-named read-outs stand apart in the source and are kept apart here.

Experiments:
[1] = test system: patients with acute hemorraghic diarrhea; test: Intravenous treatment of patients with acute hemorrhagic diarrhea; assay type: in vivo, human
Description: Rectoscopies were performed in all patients immediately before treatment, 2 and 7 days later. Two (2) of the patients accepted to be biopsed at the moment of the first and second rectoscopies.

Giardia lamblia = test: Patients with malabsorption syndrome (MAS) caused by Giardia lamblia; assay type: in vivo, human
Excerpt: Volunteer # 1: Type II MAS with positive isolation of Giardia lamblia in duodenal washings and confirmation of the disease by histopathology. […] One month later, patient 1 presented symptoms and signs of recurrence of the disease, with positive isolation of parasites in feces.
Volunteer # 2: with diffuse abdominal pain, loss of body weight and steatorrhea.

herpes simplex = test: Evolution of recidivant periorificial herpes simplex infection in volunteers; assay type: in vivo, human
Description: Patients were divided into 3 groups: one of the groups (n=4) received acyclovir by oral route and topical applications of the same drug. […] Experiments began with the appearance of the next episode of herpes, just in the moment when vesicles appeared.
All these patients were controlled monthly during the following 4 months. During this time, group A patients presented episodes with a pattern similar to that they had before the experiment was performed. […] The remaining two presented an episode of herpes 2.8 and 3.3 months later.

herpes zoster = test: Herpes zoster infection in patients; assay type: in vivo, human
Excerpt: PATIENT A: who presented a grade II vesical transitional carcinoma that was endoscopically resected. 60 days after resection they presented their first herpetic episode in chest, of 10 days of evolution. 175 days later, a second episode was presented, beginning with hyper and parastesy in the affected area and sudden appearance of vesicles.
PATIENT B: without any apparent disease. 20 and 12 months before they presented two episodes of herpes zoster in the right submammary area, of high intensity, with exquisite pain that made impossible contact with clothes, each episode lasting 3 weeks. At the present time, the patient presented their third episode, preceded by fever (during 48 hours), with crusted vesicles, some of them impetiginized.
PATIENT C: with a breast cancer, under chemo and hormone therapy. After each chemotherapy schedule received, they developed an herpetic episode in the left leg.

[2] = test system: Foot-and-mouth disease virus (FMDV); assay type: in vivo, Swiss mice
[3] = test system: EL4 h-2^b murine T-Lymphoma; test: In vitro cell growth, EL4 seeded petri dishes (Trypan blue count); assay type: cell-based; details: for Cells Alive ± STD: 72 hours
Description: EL4 h-2^b murine T-Lymphoma (2x10⁶ cells) and P815 H-2^d mastocytoma cells (2x10⁶ cells) (kindly provided by Prof. Gideon Berke at the Weizmann Institute of Sciences, Rehovot, Israel) suspended in 2 ml RPMI-HEPES supplemented with […] and 10% fetal calf serum (FCS) were seeded in every one of 10 petri dishes for each of five groups for the EL4 cells and two groups for the P815 cells. […] Group E dishes were co-cultivated with 0.1 ml RPMI-HEPES alone.
Petri dishes were incubated for 72 hours at 37°C in 5% CO₂ atmosphere. The cells harvested from the petri dishes were then centrifuged, diluted with 1% Trypan blue and counted on a Neubauer chamber.

[4] = test system: P815 H-^d mastocytoma cells; test: Mastocytoma transplanted BALB/c mice, peritoneal cell count; assay type: in vivo; details: for Cellular count ± STD / I/C: Percentual increment over control growth: Group A
Description: Two groups of BALB/c mice were injected with 15X10⁶ P815 H-^d mastocytoma cells by intraperitoneal route. […] The other group (B) was treated with saline.
On the third day assay and for the next three days, 5 mice per group were sacrificed. The peritoneal cavity was washed with phosphate buffered saline (PBS) and the ascitic fluid aspirated with syringe and centrifuged for 10 minutes at 500 Xg. The supernatant was then discarded and the cells diluted in 1% Trypan blue were counted on a Neubauer chamber. The cell count for each group can be observed in Table 3.

M3 tumor = test: M3 transplanted mice, tumor area (lidocaine and epidoxorrubicine); assay type: in vivo
[5] = Volunteer # 2, day 7 post-treatment
[6] = herpes simplex episode, ACV oral+topical, lidocaine 5 ml 2% i.v. twice a day 2 days
[7] = Mus musculus, 72 h, read-out: I/C: Percentual increment over control growth

Compound: CCN(CC)CC(=O)Nc1c(C)cccc1C [lidocaine]
- Symptomatology ([1]; 4 patients, 5 ml 2% solution i.v. twice a day for 2 days, after 48 hours of treatment): abolishment of symptomatology
- Microscopic examination of mucosa ([1]; second biopsy (2 patients)): Slight chronic inflammatory process with indemnity of epithelium
- Rectoscopy ([1]; second rectoscopy, 2 days after start of treatment): congestive and edematous mucosa, without hemorrhages and erosions
- Rectoscopy ([1]; third rectoscopy, 7 days later): normal mucosa
- D-xylose and Van der Kamer tests (Giardia lamblia; Volunteer # 1, five days later): normal values
- Enteric histopathological examination (Giardia lamblia; Volunteer # 1, five days later (type II MAS before)): type I MAS
- isolation of parasites in feces (Giardia lamblia; Volunteer # 1, i.v. twice a day 2 days, five days later): negative results
- All tests performed (Giardia lamblia; Volunteer # 1, thirty days later): normalization of enteric function with negative isolation of parasites
- D-xylose and Van der Kamer tests (Giardia lamblia; [5]): normal
- Symptoms (Giardia lamblia; [5]): asymptomatic
- microscopic examination of enteric mucosa (Giardia lamblia; Volunteer # 2, day 7 post-treatment (type II MAS before)): type I MAS
- Overall status (Giardia lamblia; Volunteer # 2, day 28 post-treatment): asymptomatic, with gain of weight, normal tests, negative isolation of parasites and a normalization of the microscopic aspect of the enteric mucosa
- isolation of parasites (Giardia lamblia; Volunteer # 2, i.v. twice a day 2 days (5 ml, 2%), day 7 post-treatment): negative results
- Pain (herpes simplex; Group B, by 48 hours after treatment was begun): no pain existed
- Vesicle evolution (herpes simplex; Group B, lidocaine i.v. at appearance of vesicles): Neither rupture of vesicles nor crust formation was found
- Duration of lesions (herpes simplex; [6]): 4.5 days
- Duration of symptoms (herpes simplex; [6]): 2 days
- FIRST EPISODE AFTER TREATMENT (herpes simplex; individual patients, followed monthly for 4 months): 84 days and 94 days
- patients who did not present another episode of the disease (herpes simplex; patients who received lidocaine (groups B and C), 4 months follow-up): 4 of 6
- time to next episode of herpes (herpes simplex; the remaining two lidocaine patients): 2.8 months and 3.3 months
- Evolution of herpetic lesions (herpes zoster; PATIENT C, breast cancer under chemo and hormone therapy): residual hyperesthesia persisted
- time to healing (crusts detached / all vesicles healed) (herpes zoster; individual patients (A, B)): ≤ 7 day post-treatment and 10 day post-treatment
- time to disappearance of pain (herpes zoster; individual patients (A, B), i.v. twice a day 2 days): ≤ 5 days and 5 days
- PRESENCE OF PMNs ([2]; 0.1 ml 0.1% i.p., 8am and 8pm day 1 (group E)): 80-90%
- PRESENCE OF PMNs ([2]; 0.1 ml 0.1% i.p., 8am and 8pm on day 1 and day 2 (group F)): 10%
- PRESENCE OF PMNs ([2]; 0.1 ml 0.2% i.p., 8am and 8pm day 1 (group C)): 30-40%
- PRESENCE OF PMNs ([2]; 0.1 ml 0.2% i.p., 8am day 1 only (group B)): 60-70%
- PRESENCE OF PMNs ([2]; 0.1 ml 0.2% i.p., 8am, 8pm day 1 and 8am day 2 (group D)): 30%
- PRESENCE OF PMNs ([2]; 0.1 ml 0.4% i.p., 8am day 1 only (group A)): 10%
- PRESENCE OF PMNs ([2]; 0.1 ml 0.8% lidocaine i.m. twice a day, 24 hours before FMDV infection): 10%
- PRESENCE OF PMNs ([2]; 0.1 ml lidocaine 0.2% i.m. twice a day 2 days (group C)): 80-90%
- PRESENCE OF PMNs ([2]; 0.1 ml lidocaine 0.4% i.m. twice a day 2 days (group B)): 60-70%
- PRESENCE OF PMNs ([2]; 0.1 ml lidocaine 0.8% i.m. twice a day 2 days (group A)): 30-50%
- Microscopic examination of the pancreas ([2]; groups A (lidocaine endovenous 24 h after FMDV) and C (simultaneous), 48 hours post-infection): minimal inflammatory damage with absence of necrosis
- Microscopic examination of the pancreas ([2]; groups A and C, 72 hours post-infection): no pancreatic damage could be found
- PRESENCE OF PMNs ([2]; lidocaine concentration 0.1%, i.m. twice a day 2 days): 50-60%
- PRESENCE OF PMNs ([2]; lidocaine concentration 0.2%, i.m. twice a day 2 days): 20-30%
- PRESENCE OF PMNs ([2]; lidocaine concentration 0.3%, i.m. twice a day 2 days): 10-20%
- PRESENCE OF PMNs ([2]; lidocaine concentration 0.4%, i.m. twice a day 2 days): 10-20%
- PRESENCE OF PMNs ([2]; lidocaine concentration 0.5%, i.m. twice a day 2 days): 10-20%
- PRESENCE OF PMNs ([2]; oral route, 0.1 ml of 2% solution twice a day 2 days): 50-100%
- PRESENCE OF PMNs ([2]; oral route, 0.2 ml of 2% solution twice a day 2 days): 30-60%
- PRESENCE OF PMNs ([2]; oral route, 0.3 ml of 2% solution twice a day 2 days): 30-60%
- PRESENCE OF PMNs ([2]; oral route, 0.4 ml of 2% solution twice a day 2 days): 50%
- PRESENCE OF PMNs ([2]; oral route, 0.5 ml. of 2% solution twice a day 2 days): 20-30%
- Cells Alive ± STD ([3]; Group A, 0.1 ml 2% lidocaine in 2 ml, 2 millions seeded, control 5.92E+06): 5.16E+06 ± 0.04 millions of cells
- Dead cells ([3]; Group A, 2% lidocaine, control 2.08E+06): 2.78E+06
- Cells Alive ± STD ([3]; Group B, 0.1 ml 0.5% lidocaine): 5.90E+06 ± 0.03 millions of cells
- Dead cells ([3]; Group B, 0.5% lidocaine): 1.64E+06
- Dead cells ([3]; Group C, 0.05% lidocaine): 1.52E+06
- Cells Alive ± STD ([3]; Group C, 0.1 ml 0.05% lidocaine): 5.46E+06 ± 0.01 millions of cells
- Dead cells ([3]; Group D, 0.005% lidocaine): 1.12E+06
- Cells Alive ± STD ([3]; Group D, 0.1 ml 0.005% lidocaine): 3.48E+06 ± 0.02 millions of cells
- inhibition at 0.005 % [3, 7]: 41.2%
- inhibition at 0.05 % [3, 7]: 7.77%
- inhibition at 0.5 % [3, 7]: 0.34%
- inhibition at 2 % [3, 7]: 12.8%
- cytotoxicity at 2 % ([3]; Mus musculus, EL4, 72 h, read-out: amount of dead cells): 35%
- amount of dead cells ([3]; groups B to E (0.5%, 0.05%, 0.005% lidocaine and control), 4320 min): 20-25%
- Cellular count ± STD ([4]; 0.1 ml 0.5% lidocaine 24 h after transplant, 48 Hs p-t, control 5.30E+07): 2.85E+07 ± 0.78 millions of cells
- I/C: Percentual increment over control growth ([4]; 48 Hs p-t): -46.18%
- I/C: Percentual increment over control growth ([4]; 72 Hs p-t): -37.11%
- Cellular count ± STD ([4]; 72 Hs p-t, control 1.59E+08): 1.00E+08 ± 3.38 millions of cells
- I/C: Percentual increment over control growth ([4]; 96 Hs p-t): 27.15%
- reduction in the growth rate ([4]; first 24 hours of lidocaine treatment, decreasing 10% per day afterwards): ~50%
- Area (tumor) (M3 tumor; day 7 p-t (day 0), lidocaine 0.1 ml 0.05% every 7 days, epidoxorrubicine 0.125 ml 0.2% every 7 days, combination: lidocaine 2 days after epidoxorrubicine): 0.46
- I/Ø: Percentual increment over tumor in day 0 (day 7 p-t) (M3 tumor; day 10 p-t, saline control 103.47): 18.75%
- Area (tumor) (M3 tumor; day 12 p-t, regimens as Table 5 footnotes, saline control 1.56): 0.70
- I/Ø: Percentual increment over tumor in day 0 (day 7 p-t) (M3 tumor; day 12 p-t, saline control 245.61): 51.56%
- Area (tumor) (M3 tumor; day 14 p-t, regimens as Table 5 footnotes, saline control 2.06): 0.96
- I/Ø: Percentual increment over tumor in day 0 (day 7 p-t) (M3 tumor; day 14 p-t, saline control 357.57): 107.81%
- Area (tumor) (M3 tumor; day 16 p-t, regimens as Table 5 footnotes, saline control 2.78): 1.11
- I/Ø: Percentual increment over tumor in day 0 (day 7 p-t) (M3 tumor; day 16 p-t, saline control 516.74): 142.19%
- Area (tumor) (M3 tumor; day 18 p-t, regimens as Table 5 footnotes, saline control 3.61): 1.38
- Area (tumor) (M3 tumor; day 21 p-t, regimens as Table 5 footnotes, saline control 4.61): 1.93
- Area (tumor) (M3 tumor; day 23 p-t, regimens as Table 5 footnotes, saline control 5.49): 2.90
- Area (tumor) (M3 tumor; day 25 p-t, regimens as Table 5 footnotes, saline control 6.24): 3.57
- I/Ø: Percentual increment over tumor in day 0 (day 7 p-t) (M3 tumor; day 25 p-t, saline control 1286.33): 676.56%
